# Measured values from ChEMBL document CHEMBL3994582, “A2B adenosine receptor antagonists: Design, synthesis and biological evaluation of novel xanthine derivatives” (Eur J Med Chem, 2017).
# Activity calls are given as the source filed them. The rule behind the calls is not given here.
# Experiments:
# [1] = target: T1, Adenosine receptor A2b (Homo sapiens, UniProt P29275); test: Displacement of [3H]-MRS-1754 from human adenosine receptor A2b expressed in HEK293 cell membranes after 90 mins by liquid scintillation counting method
# T1 sequence (P29275 whole entry): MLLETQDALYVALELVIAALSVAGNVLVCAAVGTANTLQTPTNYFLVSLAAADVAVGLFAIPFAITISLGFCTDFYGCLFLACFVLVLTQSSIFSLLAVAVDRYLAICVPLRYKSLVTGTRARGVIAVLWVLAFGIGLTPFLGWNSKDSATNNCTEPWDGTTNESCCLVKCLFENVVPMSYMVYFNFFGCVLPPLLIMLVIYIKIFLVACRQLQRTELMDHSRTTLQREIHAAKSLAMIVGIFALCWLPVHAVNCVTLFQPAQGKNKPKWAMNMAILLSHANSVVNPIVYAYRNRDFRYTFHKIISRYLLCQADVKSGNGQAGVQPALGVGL
# [2] = target: T2, Adenosine receptor A1 (Homo sapiens) (UniProt P30542); test: Displacement of [3H]DPCPX from human adenosine receptor A1 expressed in HEK293 cell membranes at 0.1 uM after 90 mins by liquid scintillation counting method relative to control
# T2 sequence (whole entry): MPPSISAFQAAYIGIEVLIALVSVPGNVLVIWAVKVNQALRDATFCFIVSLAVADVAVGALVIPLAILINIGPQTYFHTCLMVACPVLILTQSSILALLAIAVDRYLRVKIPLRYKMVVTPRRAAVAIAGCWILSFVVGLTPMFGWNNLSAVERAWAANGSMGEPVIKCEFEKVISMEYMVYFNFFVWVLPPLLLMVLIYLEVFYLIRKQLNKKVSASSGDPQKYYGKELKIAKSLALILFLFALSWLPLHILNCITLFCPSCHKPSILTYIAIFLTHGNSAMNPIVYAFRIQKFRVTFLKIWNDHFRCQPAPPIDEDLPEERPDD
# [3] = target: T3, Adenosine receptor A2a (Homo sapiens, UniProt P29274); test: Displacement of [3H]-ZM-241385 from human adenosine receptor A2a expressed in HEK293 cell membranes at 0.1 uM after 90 mins by liquid scintillation counting method relative to control
# [4] = target: T4, Adenosine receptor A3 (Homo sapiens) (UniProt P0DMS8); test: Displacement of [3H]-HEM-ADO from human adenosine receptor A3 expressed in HEK293 cell membranes at 1 uM after 90 mins by liquid scintillation counting method relative to control
# T4 sequence (whole entry): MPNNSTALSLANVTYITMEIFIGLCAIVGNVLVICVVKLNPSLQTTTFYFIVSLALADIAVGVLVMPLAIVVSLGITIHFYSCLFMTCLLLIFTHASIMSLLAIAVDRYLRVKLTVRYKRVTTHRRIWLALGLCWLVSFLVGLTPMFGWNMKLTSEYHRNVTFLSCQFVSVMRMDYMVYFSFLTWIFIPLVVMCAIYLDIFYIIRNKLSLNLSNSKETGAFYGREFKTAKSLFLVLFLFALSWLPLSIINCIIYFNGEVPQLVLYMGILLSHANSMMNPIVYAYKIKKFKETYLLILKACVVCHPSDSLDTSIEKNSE
# [5] = test system: Liver; test: Metabolic stability in mouse liver microsomes assessed as metabolic rate per mg protein preincubated for 5 mins followed by NADPH addition measured up to 30 mins by LC-MS/MS analysis; format: ADME, microsome; settings: 0.5 h
# [6] = test system: Liver; test: Metabolic stability in human liver microsomes assessed as metabolic rate per mg protein preincubated for 5 mins followed by NADPH addition measured up to 30 mins by LC-MS/MS analysis; format: ADME, microsome; settings: 0.5 h
# [7] = target: T5, Adenosine receptor A1 (Homo sapiens, UniProt P30542); test: Displacement of [3H]DPCPX from human adenosine receptor A1 expressed in HEK293 cell membranes after 90 mins by liquid scintillation counting method
# T5 sequence (P30542 whole entry): T2 sequence (whole entry)
# [8] = target: T3, Adenosine receptor A2a; test: Displacement of [3H]-ZM-241385 from human adenosine receptor A2a expressed in HEK293 cell membranes after 90 mins by liquid scintillation counting method
# [9] = species on record: Homo sapiens; test: Selectivity ratio of Ki for human adenosine receptor A1 expressed in HEK293 cell membranes to Ki for human adenosine receptor A2b expressed in HEK293 cell membranes; format: cell-based
# [10] = species on record: Homo sapiens; test: Selectivity ratio of Ki for human adenosine receptor A2a expressed in HEK293 cell membranes to Ki for human adenosine receptor A2b expressed in HEK293 cell membranes; format: cell-based
# [11] = target: T1, Adenosine receptor A2b; test: Antagonist activity at human adenosine receptor A2b expressed in HEK293 cells assessed as inhibition of NECA-induced cAMP level preincubated for 15 mins followed by NECA stimulation for 15 mins by HTRF assay; format: functional, cell-based
# [12] = Solubility of the compound; format: physicochemical
# [13] = Cmax in C57BL/6J mouse at 10 mg/kg, po via gavage by LC-MS/MS analysis; format: ADME, organism-based; design: dose 10 mg/kg, route oral; settings: in vivo
# [14] = AUC(0 to t) in C57BL/6J mouse at 10 mg/kg, po via gavage by LC-MS/MS analysis; format: ADME, organism-based; settings: in vivo
# [15] = Half life in C57BL/6J mouse at 10 mg/kg, po via gavage by LC-MS/MS analysis; format: ADME, organism-based; settings: in vivo
# [16] = Oral bioavailability in C57BL/6J mouse at 10 mg/kg via gavage by LC-MS/MS analysis; format: ADME, organism-based; settings: in vivo
# [17] = Inhibition of CYP450 (unknown origin); format: ADME, Homo sapiens
# [18] = test system: MDCK; test: Cytotoxicity against MDCK cells; settings: Canis lupus familiaris
# [19] = test system: HepG2; test: Cytotoxicity against human HepG2 cells
# [20] = test system: Mus musculus; test: (§1) Antiallergic activity in Balb/c mouse model of ovalbumin-induced allergic asthma assessed as inhibition of NECA-induced airway hyperresponsiveness in ovalbumin sensitized mouse at 3 mg/kg, ip bid administered 1 hr before OVA challenge for 60 mins followed by test compound treatment 5 hrs after OVA challenge on day 12 to 15 measured on day 15; format: functional, organism-based
# [21] = test system: Mus musculus; test: as §1, with “total cell count in BALF” for “NECA-induced airway hyperresponsiveness”; format: functional, organism-based
# T3 sequence (P29274 whole entry): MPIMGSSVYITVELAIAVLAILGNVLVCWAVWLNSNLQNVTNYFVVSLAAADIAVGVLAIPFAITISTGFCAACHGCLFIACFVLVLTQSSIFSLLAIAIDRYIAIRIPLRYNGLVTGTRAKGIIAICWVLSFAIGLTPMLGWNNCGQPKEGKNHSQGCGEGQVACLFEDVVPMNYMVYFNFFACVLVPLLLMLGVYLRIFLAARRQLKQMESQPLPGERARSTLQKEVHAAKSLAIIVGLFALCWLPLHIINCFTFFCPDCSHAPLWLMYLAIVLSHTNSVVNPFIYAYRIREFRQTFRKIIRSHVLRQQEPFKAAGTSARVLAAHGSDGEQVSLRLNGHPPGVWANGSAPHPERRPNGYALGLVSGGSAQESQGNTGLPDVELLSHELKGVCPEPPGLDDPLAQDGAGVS
Compound,Ki [1] [nM],inhibition [2] [%],inhibition [3] [%],inhibition [4] [%],Drug metabolism [5] [nmol/min/mg],Drug metabolism [6] [nmol/min/mg],Ki [7] [nM],Ki [8] [nM],Ki [11] [nM],solubility [12],Ratio Ki [9],Ratio Ki [10],further results
CCCn1c(=O)c2[nH]c(-c3cnn(CC4CC(=O)N(c5ccc(F)cc5)C4)c3)nc2n(CC)c1=O (configuration not stated),12,22,33,0,0.15,0,346,192,4,–,28,16,–
CCCn1c(=O)c2[nH]c(-c3ccc(OCC4CC(=O)N(c5cccc(F)c5)C4)cc3)nc2n(CCC)c1=O (configuration not stated),9,33,89,19,–,–,–,–,–,Insoluble,–,–,–
CCCn1c(=O)c2[nH]c(-c3cnn(CC4CCN(c5ccc(OC(F)(F)F)cc5)C4=O)c3)nc2n(CCC)c1=O (configuration not stated),6 to 8,51,7,32,0.03,0.02,340,36,191,–,56,6,–
CCCn1c(=O)c2[nH]c(-c3cc(OCC4CC(=O)N(c5ccc(C(F)(F)F)cc5)C4)no3)nc2n(CCC)c1=O (configuration not stated),12.8,0,18,0,0.04,0.07,4200,2900,540,–,328,226,–
CCCn1c(=O)c2[nH]c(-c3cnn(CC4CC(=O)N(c5ccc(OC)cc5)C4)c3)nc2n(CC)c1=O (configuration not stated),16,15,21,14,0.07,0.11,711,486,14,–,44,30,–
CCCn1c(=O)c2[nH]c(-c3ccc(OCC4CC(=O)N(c5cccc(C(F)(F)F)c5)C4)cc3)nc2n(CCC)c1=O (configuration not stated),7.5,1,80,13,0.06,0.09,–,–,–,Insoluble,–,–,–
CCCn1c(=O)c2[nH]c(-c3ccc(OCC4CC(=O)N(c5cccc(C(F)(F)F)c5)C4)nc3)nc2n(CCC)c1=O (configuration not stated),8.7,4,71,26,0,0.05,–,–,–,Insoluble,–,–,–

# Now those with a lower Ki [1], led by results:
Ki [1] [nM],inhibition [2] [%],inhibition [3] [%],inhibition [4] [%],Drug metabolism [5] [nmol/min/mg],Drug metabolism [6] [nmol/min/mg],Ki [7] [nM],Ki [8] [nM],Ki [11] [nM],solubility [12],Compound,Ratio Ki [9],Ratio Ki [10],further results
4,30,80,53,–,–,–,–,–,Insoluble,CCCn1c(=O)c2[nH]c(-c3ccc(OCC4CC(=O)N(c5ccc(F)cc5)C4)nc3)nc2n(CCC)c1=O (configuration not stated),–,–,–
5.4,29,89,44,–,–,–,–,–,Insoluble,CCCn1c(=O)c2[nH]c(-c3ccc(OCC4CC(=O)N(c5ccc(F)cc5)C4)cc3)nc2n(CCC)c1=O (configuration not stated),–,–,–
4,6,4,4,0.16,0.08,670,460,8,–,CCCn1c(=O)c2[nH]c(-c3cnn(CC4CC(=O)N(c5ccc(C(F)(F)F)cc5)C4)c3)nc2n(CC)c1=O (configuration not stated),167,115,Cmax [13]: 3.8 µM; AUC(0-t) [14]: 2.9 µM·h; half-life [15]: 54 min; bioavailability [16]: 11%
3,25,46,0,0,0.02,> 800,53,71,Insoluble,CCCn1c(=O)c2[nH]c(-c3ccc(OCC4CC(=O)N(c5ccc(C(F)(F)F)cc5)C4)nc3)nc2n(CCC)c1=O (configuration not stated),> 266,17,–
4.6,17,85,53,–,–,–,–,–,Insoluble,CCCn1c(=O)c2[nH]c(-c3ccc(OCC4CC(=O)N(c5cccc(F)c5)C4)nc3)nc2n(CCC)c1=O (configuration not stated),–,–,–
1,29,60,23,0.01,0.05,–,–,–,Insoluble,CCCn1c(=O)c2[nH]c(-c3ccc(OCC4CC(=O)N(c5ccc(C(F)(F)F)cc5)C4)cc3)nc2n(CCC)c1=O (configuration not stated),–,–,–
1,49,52,0,0.16,0.02,108,124,0.9,–,CCCn1c(=O)c2[nH]c(-c3cnn(CC4CC(=O)N(c5ccc(C(F)(F)F)cc5)C4)c3)nc2n(CCC)c1=O (configuration not stated),108,124,Cmax [13]: 16.7 µM; AUC(0-t) [14]: 21 µM·h; half-life [15]: 144 min; bioavailability [16]: 27%
1.5,32,37,0,0.04,0.16,177,57,4,–,CCCn1c(=O)c2[nH]c(-c3cnn(CC(=O)N4CCN(c5cccc(C(F)(F)F)c5)CC4)c3)nc2n(CCC)c1=O,118,38,Cmax [13]: 44 µM; AUC(0-t) [14]: 51 µM·h; half-life [15]: 114 min; bioavailability [16]: 65%; IC50 [17]: > 25 µM; IC50 [18]: > 100 µM; IC50 [19]: > 100 µM; inhibition [20]: Active; inhibition [21]: Active
